From ChEMBL document CHEMBL5724914, “Linking interpersonal differences in gut microbiota composition and drug biotransformation activity” (2024) come the findings set out here.

A short description of series [1]: The drug is tested on Z-026 corresponding to metagenome with ENA study accession number: PRJEB37062 and ENA sample accession number: ERS12561825 for biotransformation under anaerobic condition. The drug concentrations were measured over 9 timepoints collected between 0 and 24 hours of incubation by liquid-chromatography-coupled mass spectrometry (LC–MS). To be noted: 2 µM.

A short description of series [2]: The drug is tested on Z-014 corresponding to rat gut metagenome with ENA study accession number: PRJEB37062 and ENA sample accession number: ERS12561814 for biotransformation under anaerobic condition. The drug concentrations were measured over 9 timepoints collected between 0 and 24 hours of incubation by liquid-chromatography-coupled mass spectrometry (LC–MS). To be noted: 2 µM.

The nature of series [3]: The drug is tested on Z-007 corresponding to rat gut metagenome with ENA study accession number: PRJEB37062 and ENA sample accession number: ERS12561807 for biotransformation under anaerobic condition. The drug concentrations were measured over 9 timepoints collected between 0 and 24 hours of incubation by liquid-chromatography-coupled mass spectrometry (LC–MS). To be noted: 2 µM.

The nature of series [4]: The drug is tested on Z-001 corresponding to mouse gut metagenome with ENA study accession number: PRJEB37062 and ENA sample accession number: ERS12561801 for biotransformation under anaerobic condition. The drug concentrations were measured over 9 timepoints collected between 0 and 24 hours of incubation by liquid-chromatography-coupled mass spectrometry (LC–MS). The conditions noted are these: 2 µM.

The nature of series [5]: The drug is tested on WLS-370 corresponding to human gut metagenome with ENA study accession number: PRJEB37062 and ENA sample accession number: ERS12561793 for biotransformation under anaerobic condition. The drug concentrations were measured over 9 timepoints collected between 0 and 24 hours of incubation by liquid-chromatography-coupled mass spectrometry (LC–MS). The conditions noted are these: 2 µM.

Series [6] is described as follows: The drug is tested on WLS-086 corresponding to human gut metagenome with ENA study accession number: PRJEB37062 and ENA sample accession number: ERS12561752 for biotransformation under anaerobic condition. The drug concentrations were measured over 9 timepoints collected between 0 and 24 hours of incubation by liquid-chromatography-coupled mass spectrometry (LC–MS). To be noted: 2 µM.

Series [7] can be described thus: The drug is tested on WLS-077 corresponding to human gut metagenome with ENA study accession number: PRJEB37062 and ENA sample accession number: ERS12561750 for biotransformation under anaerobic condition. The drug concentrations were measured over 9 timepoints collected between 0 and 24 hours of incubation by liquid-chromatography-coupled mass spectrometry (LC–MS). The conditions noted are these: 2 µM.

Series [8] in a line: The drug is tested on WLS-052 corresponding to human gut metagenome with ENA study accession number: PRJEB37062 and ENA sample accession number: ERS12561747 for biotransformation under anaerobic condition. The drug concentrations were measured over 9 timepoints collected between 0 and 24 hours of incubation by liquid-chromatography-coupled mass spectrometry (LC–MS). To be noted: 2 µM.

Series [9] in a line: The drug is tested on WLS-010 corresponding to human gut metagenome with ENA study accession number: PRJEB37062 and ENA sample accession number: ERS12561743 for biotransformation under anaerobic condition. The drug concentrations were measured over 9 timepoints collected between 0 and 24 hours of incubation by liquid-chromatography-coupled mass spectrometry (LC–MS). To be noted: 2 µM.

The conditions of series [10]: human gut metagenome, 24 h, 2 µM.
The conditions of series [11]: human gut metagenome, 24 h, 2 µM. This is another data set of the same source.
The conditions of series [12]: human gut metagenome, 24 h, 2 µM. The source holds these as a separate data set.
For series [13] the following is noted: human gut metagenome, 24 h, 2 µM. The source holds these as a separate data set.
The conditions of series [14]: human gut metagenome, 24 h, 2 µM. The source holds these as a separate data set.
The conditions of series [15]: human gut metagenome, 24 h, 2 µM. This is another data set of the same source.
For series [16] the following is noted: human gut metagenome, 24 h, 2 µM. The source holds these as a separate data set.
The conditions of series [17]: human gut metagenome, 24 h, 2 µM. This is another data set of the same source.
The conditions of series [18]: human gut metagenome, 24 h, 2 µM. The source holds these as a separate data set.
For series [19] the following is noted: human gut metagenome, 24 h, 2 µM. The source holds these as a separate data set.
For series [20] the following is noted: human gut metagenome, 24 h, 2 µM. This is another data set of the same source.
Further: call rule not given here.

Take `COc1ccc(C(CN(C)C)C2(O)CCCCC2)cc1` (stereo not given) [VENLAFAXINE]: the “Bacterial Biotransformation” value is “Compound NOT metabolized” in series [1]; “Compound NOT metabolized” in [2]; “Compound NOT metabolized” in series [3]; “Compound metabolized” in [4]; “Compound NOT metabolized” in series [5]; “Compound NOT metabolized” in series [6]. In addition, the “Bacterial Biotransformation” value in series [7], in series [8], in [9], in series [10], in series [11] and in series [12] was “Compound NOT metabolized” throughout. Besides, the “Bacterial Biotransformation” value in [13] is “Compound NOT metabolized”; in series [14], “Compound NOT metabolized”; in series [15] it was “Compound NOT metabolized”; in series [16] it was “Compound NOT metabolized”; in [17], “Compound NOT metabolized”; in series [18], “Compound metabolized”. Further, the “Bacterial Biotransformation” value in series [19] and in series [20] was “Compound NOT metabolized” each time.
Take `CCOC(=O)C1=C[C@]2(CC)CCCN3CCc4c(n1c1ccccc41)[C@@H]32` [VINPOCETINE]: the “Bacterial Biotransformation” value in [1] was “Compound NOT metabolized”; in [2] it was “Compound NOT metabolized”; in series [3], “Compound NOT metabolized”; in [4], “Compound NOT metabolized”; in series [5] it was “Compound metabolized”; in [6], “Compound metabolized”. Moreover, the “Bacterial Biotransformation” value is reported as “Compound metabolized” in series [7]; “Compound metabolized” in series [8]; “Compound NOT metabolized” in series [9]; “Compound metabolized” in series [10]; “Compound NOT metabolized” in series [11]; “Compound metabolized” in [12]. Also, the “Bacterial Biotransformation” value in [13] is “Compound metabolized”; in [14], “Compound metabolized”; in [15] it was “Compound metabolized”; in [16], “Compound NOT metabolized”; in [17], “Compound metabolized”; in series [18], “Compound metabolized”. For the same molecule, the “Bacterial Biotransformation” value in series [19] is “Compound NOT metabolized”; in series [20] it was “Compound metabolized”.
As to `CCN(C(C)=O)c1cccc(-c2ccnc3c(C#N)cnn23)c1` [ZALEPLON], the “Bacterial Biotransformation” value in series [1] was “Compound NOT metabolized”; in [2] it was “Compound NOT metabolized”; in series [3], “Compound NOT metabolized”; in series [4], “Compound NOT metabolized”; in [5] it was “Compound metabolized”; in series [6], “Compound metabolized”. Also, the “Bacterial Biotransformation” value is “Compound metabolized” in [7]; “Compound metabolized” in [8]; “Compound metabolized” in [9]; “Compound metabolized” in series [10]; “Compound NOT metabolized” in series [11]; “Compound metabolized” in [12]. Also, the “Bacterial Biotransformation” value in [13], in series [14], in series [15], in [16], in series [17] and in [18] was “Compound metabolized” throughout. Further, the “Bacterial Biotransformation” value in series [19] is recorded as “Compound NOT metabolized”; in series [20], “Compound metabolized”.
